Measured values as given in ChEMBL document CHEMBL1201862, “PubChem BioAssay data set” (2004).
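Compound exposure: 48 hours, 5 concentrations, 96-well plates. Here, GI50 denotes the concentration required for 50% inhibition of growth.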 Active and inactive are the calls of the source. Cut-off read from the data, not from the text of the source: active = GI50 up to about 1.1 µM and inactive = higher.

Key:
Assay in all cases: NCI tumour cell line growth inhibition, 48 h
A549 = system: A549
ACHN = system: ACHN
EKVX = system: EKVX
HCT-15 = system: HCT-15
HT-29 = system: HT-29
IGROV-1 = system: IGROV-1
MDA-MB-435 = system: MDA-MB-435
MDA-N = system: MDA-N
Malme-3M = system: Malme-3M
OVCAR-3 = system: OVCAR-3
OVCAR-4 = system: OVCAR-4
PC-3 = system: PC-3
SF-295 = system: SF-295
SK-MEL-2 = system: SK-MEL-2
SNB-19 = system: SNB-19
SNB-75 = system: SNB-75
SW-620 = system: SW-620
T47D = system: T47D
MDA-MB-231 = system: MDA-MB-231
SF-539 = system: SF-539

| Compound | GI50 (A549) | GI50 (ACHN) | GI50 (EKVX) | GI50 (HCT-15) [µM] | GI50 (HT-29) | GI50 (IGROV-1) | GI50 (MDA-MB-435) | GI50 (MDA-N) | GI50 (Malme-3M) | GI50 (OVCAR-3) | GI50 (OVCAR-4) | GI50 (PC-3) | GI50 (SF-295) | GI50 (SK-MEL-2) | GI50 (SNB-19) | GI50 (SNB-75) | GI50 (SW-620) | GI50 (T47D) | GI50 (MDA-MB-231) | GI50 (SF-539) |
| --- | --- | --- | --- | --- | --- | --- | --- | --- | --- | --- | --- | --- | --- | --- | --- | --- | --- | --- | --- | --- |
| CCOP(=O)(OCC)C(Cc1ccccc1)N=C(c1ccccc1)c1ccccc1 (centres undefined) | 9.29 µM (inactive) | 14.9 µM (inactive) | 18 µM (inactive) | 12.1 | 13.1 µM (inactive) | 13.9 µM (inactive) | 13.2 µM (inactive) | 14.6 µM (inactive) | 20.6 µM (inactive) | 14.5 µM (inactive) | 16.2 µM (inactive) | 3.96 µM (inactive) | 12.3 µM (inactive) | 18.2 µM (inactive) | 14.6 µM (inactive) | 11.5 µM (inactive) | 12.4 µM (inactive) | 6.97 µM (inactive) |  |  |
| CS(=O)(=O)Nc1ccc2c(c1)N(S(C)(=O)=O)CC2CCl (centres undefined) | > 100 µM (inactive) | > 100 µM (inactive) | > 100 µM (inactive) | > 100 | > 100 µM (inactive) | > 100 µM (inactive) | > 100 µM (inactive) |  | > 100 µM (inactive) | > 100 µM (inactive) | > 100 µM (inactive) | > 100 µM (inactive) | > 100 µM (inactive) | > 100 µM (inactive) |  | > 100 µM (inactive) | > 100 µM (inactive) | > 100 µM (inactive) | > 100 µM (inactive) | > 100 µM (inactive) |
| COc1cc2c(cc1C)NC(=O)/C2=C/c1cccnc1 |  | 11.9 µM (inactive) | 18.3 µM (inactive) | 11 | 17.7 µM (inactive) |  | 12.9 µM (inactive) |  | 16.4 µM (inactive) | 12.3 µM (inactive) | 26.1 µM (inactive) | 17.9 µM (inactive) | 12.5 µM (inactive) | 16 µM (inactive) | 11.7 µM (inactive) | 45 µM (inactive) | 20.8 µM (inactive) | 2.84 µM (inactive) |  | 26.9 µM (inactive) |
| COc1ccccc1Cn1[nH]c(=O)c2cc([N+](=O)[O-])ccc21 | 93.1 µM (inactive) | 75 µM (inactive) | > 100 µM (inactive) | > 100 | > 100 µM (inactive) | 43.5 µM (inactive) | 43.9 µM (inactive) | 47.8 µM (inactive) | > 100 µM (inactive) | 27.9 µM (inactive) | > 100 µM (inactive) |  |  | 24.4 µM (inactive) | 61.2 µM (inactive) | 25.8 µM (inactive) | 84.9 µM (inactive) |  | 64.4 µM (inactive) | > 100 µM (inactive) |
| CCCCCCc1cc2cc(C(=O)Nc3cccc(C(F)(F)F)c3)c(=N)oc2cc1O | 2.06 µM (inactive) | 1.56 µM (inactive) | 2.94 µM (inactive) | 1.43 | 5.96 µM (inactive) | 1.19 µM (inactive) | 2 µM (inactive) |  | 1.17 µM (inactive) | 2.07 µM (inactive) | 2.32 µM (inactive) | 3.34 µM (inactive) | 2.9 µM (inactive) | 2.17 µM (inactive) | 2.39 µM (inactive) | 0.646 µM (active) | 2.2 µM (inactive) | 0.316 µM (active) | 2.31 µM (inactive) | 1.73 µM (inactive) |
| Fc1ccc(C2NC(=S)NC3=C2CCOc2c3ccc3ccccc23)cc1 (centres undefined) | 31.3 µM (inactive) | 58.7 µM (inactive) | 51.9 µM (inactive) | 18.7 |  | 47.1 µM (inactive) | 8.53 µM (inactive) |  | 17.4 µM (inactive) | 44.1 µM (inactive) | 24.7 µM (inactive) | 50.8 µM (inactive) | 34.4 µM (inactive) | 79.6 µM (inactive) | 55.1 µM (inactive) | 13.6 µM (inactive) | 39.1 µM (inactive) | 2.7 µM (inactive) |  | > 100 µM (inactive) |
| O=C(O)c1nc2ccc(C(F)(F)F)cc2nc1Nc1ccc(Cl)c(Cl)c1 |  | 7.67 µM (inactive) | 7.26 µM (inactive) | 8.97 | 9.16 µM (inactive) | 12.8 µM (inactive) | 5.74 µM (inactive) | 6.73 µM (inactive) | 13.3 µM (inactive) | 6.37 µM (inactive) | 6.98 µM (inactive) | 4.58 µM (inactive) | 4.36 µM (inactive) | 2.31 µM (inactive) | 2.16 µM (inactive) | 13.2 µM (inactive) | 8.15 µM (inactive) |  | 6.05 µM (inactive) |  |
| COc1ccc(CCn2ccc(=O)c(O)c2C)cc1OC | 21.4 µM (inactive) | 5.26 µM (inactive) | 24.4 µM (inactive) | 2.7 | 18.5 µM (inactive) |  | 41.6 µM (inactive) | 19.2 µM (inactive) | 30.7 µM (inactive) |  |  | 56.2 µM (inactive) | 5.77 µM (inactive) |  | 16 µM (inactive) |  | 41.1 µM (inactive) | 29.9 µM (inactive) | 1.4 µM (inactive) | 26.2 µM (inactive) |
| CC1(C)CC(=O)C2=C(C1)OC1(CC2c2ccc(Cl)cc2)CC(c2ccc(Cl)cc2)C2=C(CC(C)(C)CC2=O)O1 (centres undefined) | 13.6 µM (inactive) | 18.5 µM (inactive) | 16.1 µM (inactive) | 9.62 | 28.2 µM (inactive) | 12.5 µM (inactive) | 8.53 µM (inactive) |  | 15.3 µM (inactive) | 3.44 µM (inactive) | 6.78 µM (inactive) | 18.2 µM (inactive) | 22.2 µM (inactive) | 18.8 µM (inactive) | 18.8 µM (inactive) | 17.5 µM (inactive) | 20.7 µM (inactive) | > 10 µM (inactive) | 24.4 µM (inactive) | 20.5 µM (inactive) |
| CCOP(=O)(OCC)C(Nc1ccc(F)cc1)c1cccc([N+](=O)[O-])c1 (centres undefined) | 58.7 µM (inactive) | > 100 µM (inactive) | 90.4 µM (inactive) | 83.8 | 74.6 µM (inactive) | 78.9 µM (inactive) | > 100 µM (inactive) | > 100 µM (inactive) | 83.8 µM (inactive) | > 100 µM (inactive) | 57.4 µM (inactive) | 67.5 µM (inactive) | > 100 µM (inactive) | 49.7 µM (inactive) | > 100 µM (inactive) | > 100 µM (inactive) | > 100 µM (inactive) |  | 71.9 µM (inactive) | > 100 µM (inactive) |
| Cc1n[nH]c(=O)n1/N=C/c1ccc(Cl)cc1 | 61.2 µM (inactive) | > 100 µM (inactive) | 13.3 µM (inactive) | > 100 |  |  | > 100 µM (inactive) | > 100 µM (inactive) |  | 27.9 µM (inactive) | 98.4 µM (inactive) |  | 46 µM (inactive) |  | 61.9 µM (inactive) | 41.2 µM (inactive) | 68.7 µM (inactive) | 35.6 µM (inactive) |  | 78.2 µM (inactive) |
| CCOC(=O)Nn1c(C)nnc1CC#N | > 100 µM (inactive) | > 100 µM (inactive) |  | > 100 | > 100 µM (inactive) | > 100 µM (inactive) |  |  | > 100 µM (inactive) | > 100 µM (inactive) |  | > 100 µM (inactive) | > 100 µM (inactive) | > 100 µM (inactive) | > 100 µM (inactive) | > 100 µM (inactive) | > 100 µM (inactive) | > 100 µM (inactive) | > 100 µM (inactive) | > 100 µM (inactive) |
| O=C(c1ccccc1)N1CCN(C(=S)NC2CCCCC2)C1=S | 13.4 µM (inactive) | 24.3 µM (inactive) | 16.1 µM (inactive) | 15.8 | 20.2 µM (inactive) | 24.2 µM (inactive) | 19.5 µM (inactive) | 19.4 µM (inactive) | 15.5 µM (inactive) | 15.6 µM (inactive) | 18.9 µM (inactive) |  | 20.9 µM (inactive) | 4.58 µM (inactive) |  | 11.1 µM (inactive) | 21.6 µM (inactive) | 15.8 µM (inactive) | 7.03 µM (inactive) | 13.5 µM (inactive) |
| O=C(CCCn1ccnc1[N+](=O)[O-])NCCn1ccnc1[N+](=O)[O-] | > 100 µM (inactive) | > 100 µM (inactive) | > 100 µM (inactive) | > 100 | > 100 µM (inactive) | > 100 µM (inactive) | > 100 µM (inactive) | > 100 µM (inactive) | > 100 µM (inactive) | > 100 µM (inactive) | > 100 µM (inactive) | > 100 µM (inactive) | > 100 µM (inactive) | > 100 µM (inactive) | > 100 µM (inactive) | > 100 µM (inactive) | > 100 µM (inactive) | > 100 µM (inactive) |  | > 100 µM (inactive) |
| C/C(=C(/C)c1ccc(O)cc1)c1ccc(O)cc1 [DIMETHYLSTILBESTROL] | 71.3 µM (inactive) | 28.8 µM (inactive) | 8.95 µM (inactive) | 61.1 | 48.8 µM (inactive) | > 100 µM (inactive) | 37.9 µM (inactive) | 31.8 µM (inactive) | 60.8 µM (inactive) | 46.6 µM (inactive) | > 10 µM (inactive) | 41.3 µM (inactive) |  | 10 µM (inactive) | > 100 µM (inactive) | 39.2 µM (inactive) | > 100 µM (inactive) |  | > 100 µM (inactive) | 32.3 µM (inactive) |
| COc1ccc2c3c([nH]c2c1)[C@H](C=C(C)C)N1C(=O)[C@@H]2CCCN2C(=O)[C@@H]1C3 [FUMITREMORGIN] | > 100 µM (inactive) | 56 µM (inactive) | > 100 µM (inactive) | > 100 | > 100 µM (inactive) | > 100 µM (inactive) | > 100 µM (inactive) |  | 78.3 µM (inactive) | > 100 µM (inactive) | > 100 µM (inactive) | > 100 µM (inactive) | 51.3 µM (inactive) | > 100 µM (inactive) | > 100 µM (inactive) | 21.7 µM (inactive) | > 100 µM (inactive) | > 100 µM (inactive) | 70.8 µM (inactive) | 29.6 µM (inactive) |
